Assay results reported in PubChem BioAssay (NCI).
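1) Cells in 96-well plates. 2) Compound, 48 h, 5 concentrations. 3) Linear interpolation between surrounding doses. 4) Unreached endpoint = highest concentration. GI50 marks 50% less growth. Definition used: TGI = concentration required for complete inhibition of growth.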

Experiments:
Test in all cases: NCI anticancer screen, dose series, 48 h
HCC-2998 colon = tested on: HCC-2998 colon
M14 melanoma = tested on: M14 melanoma
SF-539 CNS = tested on: SF-539 CNS
NCI-H522 lung = tested on: NCI-H522 lung
SW-620 colon = tested on: SW-620 colon
SF-268 CNS = tested on: SF-268 CNS
SF-295 CNS = tested on: SF-295 CNS
RPMI-8226 leukemia = tested on: RPMI-8226 leukemia
SNB-19 CNS = tested on: SNB-19 CNS
HCT-15 colon = tested on: HCT-15 colon

COC(=O)c1ccc(C)cc1C1CN=NC12Cc1cccc(C)c1C2=O (centres undefined)
TGI (HCC-2998 colon): > 100 µM
TGI (M14 melanoma): 42.1 µM
TGI (SF-539 CNS): > 100 µM
TGI (NCI-H522 lung): 78.1 µM
TGI (SW-620 colon): > 100 µM
TGI (SF-268 CNS): > 100 µM
TGI (SF-295 CNS): > 100 µM
TGI (RPMI-8226 leukemia): 49.8 µM
TGI (SNB-19 CNS): > 100 µM
TGI (HCT-15 colon): > 100 µM

COc1ccc(Cn2c(=O)c(OS(=O)(=O)C(F)(F)F)c(C)c3cc4ccccc4cc32)cc1
TGI (HCC-2998 colon): > 100 µM
TGI (M14 melanoma): > 100 µM
TGI (SF-539 CNS): > 100 µM
TGI (NCI-H522 lung): > 100 µM
TGI (SW-620 colon): > 100 µM
TGI (SF-268 CNS): > 100 µM
TGI (SF-295 CNS): > 100 µM
TGI (SNB-19 CNS): > 100 µM
TGI (HCT-15 colon): > 100 µM

CCOC(=O)/C=C(/C(=O)OCC)n1cc(C)c(=O)n(Cc2cn(CCCCOC(C)=O)nn2)c1=O
TGI (HCC-2998 colon): 36.6 µM
TGI (SF-539 CNS): 19.1 µM
TGI (NCI-H522 lung): 4.53 µM
TGI (SW-620 colon): > 100 µM
TGI (SF-268 CNS): 38.7 µM
TGI (SF-295 CNS): > 100 µM
TGI (RPMI-8226 leukemia): 25.6 µM
TGI (SNB-19 CNS): 41.9 µM
TGI (HCT-15 colon): > 100 µM

Cc1cc2ccccc2oc(=O)/c1=N\Nc1ccccc1
TGI (HCC-2998 colon): > 100 µM
TGI (M14 melanoma): > 100 µM
TGI (SF-539 CNS): > 100 µM
TGI (NCI-H522 lung): > 100 µM
TGI (SW-620 colon): > 100 µM
TGI (SF-295 CNS): > 100 µM
TGI (RPMI-8226 leukemia): > 100 µM
TGI (SNB-19 CNS): > 100 µM
TGI (HCT-15 colon): > 100 µM

Clc1cc(Cl)nc(Nc2ccc3c(c2)CCC3)n1
TGI (HCC-2998 colon): 30.4 µM
TGI (M14 melanoma): > 100 µM
TGI (SF-539 CNS): > 100 µM
TGI (SW-620 colon): > 100 µM
TGI (SF-268 CNS): > 100 µM
TGI (SF-295 CNS): > 100 µM
TGI (RPMI-8226 leukemia): 42 µM
TGI (SNB-19 CNS): > 100 µM
TGI (HCT-15 colon): > 100 µM

C/C(=N\Nc1nc2cc(F)ccc2s1)c1ccccn1
TGI (M14 melanoma): 4.07 µM
TGI (SF-539 CNS): > 23.4 µM
TGI (NCI-H522 lung): 2.62 µM
TGI (SW-620 colon): 5.37 µM
TGI (SF-268 CNS): 1.65 µM
TGI (SF-295 CNS): 4.67 µM
TGI (RPMI-8226 leukemia): > 100 µM
TGI (SNB-19 CNS): > 41.7 µM
TGI (HCT-15 colon): 2.12 µM

O=C1OC2(CCCCC2)C(Oc2ccc(Cl)cc2)=C1F
TGI (HCC-2998 colon): 57 µM
TGI (M14 melanoma): > 100 µM
TGI (SF-539 CNS): > 100 µM
TGI (NCI-H522 lung): 95.9 µM
TGI (SW-620 colon): > 100 µM
TGI (SF-268 CNS): > 100 µM
TGI (SF-295 CNS): > 100 µM
TGI (RPMI-8226 leukemia): > 100 µM
TGI (SNB-19 CNS): > 100 µM

Cc1cc(C)c(S(=O)(=O)N(CCCCCN)OCCCN)c(C)c1
TGI (HCC-2998 colon): 20 µM
TGI (M14 melanoma): 37 µM
TGI (SF-539 CNS): 27 µM
TGI (SW-620 colon): 36.3 µM
TGI (SF-268 CNS): 37.6 µM
TGI (SF-295 CNS): 30.4 µM
TGI (RPMI-8226 leukemia): 30.6 µM
TGI (SNB-19 CNS): 37.6 µM

CC(C)(C)OC(=O)NCC(c1c[nH]c2ccccc12)c1c[nH]c2ccccc12
TGI (M14 melanoma): 29.1 µM
TGI (SF-539 CNS): 35.4 µM
TGI (NCI-H522 lung): 39.3 µM
TGI (SW-620 colon): 41 µM
TGI (SF-268 CNS): 33.6 µM
TGI (SF-295 CNS): 32.8 µM
TGI (RPMI-8226 leukemia): 22.2 µM
TGI (SNB-19 CNS): 31.1 µM
TGI (HCT-15 colon): 53.5 µM

C=C1c2nc3ccccc3n2C=C(c2ccccc2)N1c1ccc(C)cc1
TGI (HCC-2998 colon): 36.7 µM
TGI (M14 melanoma): > 100 µM
TGI (SF-539 CNS): > 100 µM
TGI (NCI-H522 lung): > 100 µM
TGI (SW-620 colon): > 100 µM
TGI (SF-295 CNS): > 100 µM
TGI (RPMI-8226 leukemia): > 100 µM
TGI (SNB-19 CNS): > 100 µM
TGI (HCT-15 colon): > 100 µM

CC(C)(C)N=C1C(=O)C2(C)CCC1C2(C)C (centres undefined)
TGI (HCC-2998 colon): > 100 µM
TGI (M14 melanoma): > 100 µM
TGI (SF-539 CNS): > 100 µM
TGI (SW-620 colon): > 100 µM
TGI (SF-268 CNS): > 100 µM
TGI (SF-295 CNS): > 100 µM
TGI (RPMI-8226 leukemia): > 100 µM
TGI (SNB-19 CNS): > 100 µM
TGI (HCT-15 colon): > 100 µM

O=Cc1c2c(cc3c1CC1(C3)Cc3cc4c(c(C=O)c3C1)CCC4)CCC2
TGI (HCC-2998 colon): > 100 µM
TGI (M14 melanoma): > 100 µM
TGI (SF-539 CNS): > 100 µM
TGI (NCI-H522 lung): > 100 µM
TGI (SF-295 CNS): > 100 µM
TGI (RPMI-8226 leukemia): > 100 µM
TGI (HCT-15 colon): > 100 µM

Cc1c2oc(=O)c(C#N)cc2c2ccccn12
TGI (HCC-2998 colon): > 100 µM
TGI (M14 melanoma): > 100 µM
TGI (SF-539 CNS): > 100 µM
TGI (SW-620 colon): > 100 µM
TGI (SF-268 CNS): > 100 µM
TGI (SF-295 CNS): 40.7 µM
TGI (RPMI-8226 leukemia): > 100 µM
TGI (SNB-19 CNS): > 100 µM
TGI (HCT-15 colon): > 100 µM

COc1cccc(C2C(C#N)=C(N)Oc3cc(OCCCCCC[P+](c4ccccc4)(c4ccccc4)c4ccccc4)ccc32)c1 (centres undefined)
GI50 (HCC-2998 colon): 0.493 µM
TGI (HCC-2998 colon): 1.68 µM
GI50 (SF-539 CNS): 0.745 µM
TGI (SF-539 CNS): 2.12 µM
GI50 (NCI-H522 lung): 0.515 µM
TGI (NCI-H522 lung): 2.49 µM
GI50 (SF-295 CNS): 1.58 µM
TGI (SF-295 CNS): 3.19 µM
GI50 (RPMI-8226 leukemia): 0.194 µM
TGI (RPMI-8226 leukemia): 0.659 µM
GI50 (SNB-19 CNS): 0.366 µM
TGI (SNB-19 CNS): 1.44 µM
GI50 (HCT-15 colon): 2.24 µM
TGI (HCT-15 colon): 6.14 µM

O=S1(=O)N=C(SCc2c[nH]c3ccccc23)N(c2ccccc2)c2ccncc21
TGI (HCC-2998 colon): > 100 µM
TGI (M14 melanoma): > 100 µM
TGI (SF-539 CNS): 80.5 µM
TGI (NCI-H522 lung): > 100 µM
TGI (SW-620 colon): > 100 µM
TGI (SF-268 CNS): > 100 µM
TGI (SF-295 CNS): > 100 µM
TGI (SNB-19 CNS): > 100 µM
TGI (HCT-15 colon): > 100 µM

C=CCN1C(=O)C[C@H](Cc2ccccc2)NC(=O)C[C@H](Cc2ccccc2)N(CC=C)C(=O)C[C@H](Cc2ccccc2)NC(=O)C[C@@H]1Cc1ccccc1
TGI (M14 melanoma): > 100 µM
TGI (SF-539 CNS): > 100 µM
TGI (SW-620 colon): > 100 µM
TGI (SF-268 CNS): > 100 µM
TGI (SF-295 CNS): > 100 µM
TGI (RPMI-8226 leukemia): 9.66 µM
TGI (SNB-19 CNS): > 100 µM
TGI (HCT-15 colon): > 100 µM

COc1c(NC(C)=O)c2ccccc2c2ccccc12
TGI (M14 melanoma): > 100 µM
TGI (NCI-H522 lung): > 100 µM
TGI (SW-620 colon): > 100 µM
TGI (SF-268 CNS): > 100 µM
TGI (SF-295 CNS): > 100 µM
TGI (SNB-19 CNS): > 100 µM
TGI (HCT-15 colon): > 100 µM

N#Cc1nc(CN2C(=O)c3ccccc3C2=O)oc1N
TGI (HCC-2998 colon): > 100 µM
TGI (M14 melanoma): > 100 µM
TGI (SF-539 CNS): > 100 µM
TGI (NCI-H522 lung): > 100 µM
TGI (SW-620 colon): > 100 µM
TGI (SF-268 CNS): > 100 µM
TGI (SF-295 CNS): > 100 µM
TGI (RPMI-8226 leukemia): > 100 µM
TGI (HCT-15 colon): > 100 µM

COC(=O)c1c(CC(=O)OC(C)C)cc2n(c1=O)Cc1c-2nc2ccccc2c1OC
TGI (HCC-2998 colon): > 100 µM
TGI (M14 melanoma): > 100 µM
TGI (NCI-H522 lung): > 100 µM
TGI (SW-620 colon): > 100 µM
TGI (SF-268 CNS): > 100 µM
TGI (SF-295 CNS): > 100 µM
TGI (RPMI-8226 leukemia): > 100 µM
TGI (SNB-19 CNS): > 100 µM
TGI (HCT-15 colon): > 100 µM

COc1ccc(-c2csc3c2[N+]2(C)C=CC=C2C3N2CCCC2)cc1 (centres undefined)
TGI (M14 melanoma): > 100 µM
TGI (SF-539 CNS): 57.7 µM
TGI (NCI-H522 lung): 19.1 µM
TGI (SW-620 colon): > 100 µM
TGI (SF-268 CNS): > 100 µM
TGI (SF-295 CNS): 54 µM
TGI (RPMI-8226 leukemia): > 100 µM
TGI (SNB-19 CNS): > 100 µM
TGI (HCT-15 colon): > 100 µM

NCCCNCCSP(=O)(O)O
TGI (HCC-2998 colon): > 750 µM
TGI (SF-539 CNS): > 750 µM
TGI (NCI-H522 lung): 738 µM
TGI (SW-620 colon): > 750 µM
TGI (SF-268 CNS): > 750 µM
TGI (SF-295 CNS): > 750 µM
TGI (RPMI-8226 leukemia): > 750 µM
TGI (SNB-19 CNS): > 750 µM
TGI (HCT-15 colon): > 645 µM

C=CCCCN(C(=O)c1ccccc1)c1ccc(C(=O)OC)o1
TGI (M14 melanoma): > 100 µM
TGI (SF-539 CNS): > 100 µM
TGI (NCI-H522 lung): > 100 µM
TGI (SF-268 CNS): > 100 µM
TGI (SF-295 CNS): > 100 µM
TGI (SNB-19 CNS): > 100 µM
TGI (HCT-15 colon): > 100 µM

CC(=O)c1c(-c2ccco2)c(C#N)c(=S)n(C2OC(CO)C(O)C(O)C2O)c1C (centres undefined)
TGI (M14 melanoma): > 100 µM
TGI (SF-539 CNS): > 100 µM
TGI (SW-620 colon): > 100 µM
TGI (SF-268 CNS): > 100 µM
TGI (SF-295 CNS): > 100 µM
TGI (RPMI-8226 leukemia): > 100 µM
TGI (SNB-19 CNS): > 100 µM
TGI (HCT-15 colon): > 100 µM
